We go through 12 molecules from EP0623343A1, “Ketamine analogues for the treatment of thrombocytopenia” (GENENTECH, INC., priority 1993, dated 1994).

The structures appear in SMILES notation. Where two headings read alike, the source gives them in different places.

In assay [1] the test system is CMK cells. Put plainly: CMK assay for thrombopoietin (TPO) induction of platelet antigen GPIIbIIIa expression. The following applies: for minimal effective concentration: Homo sapiens, CMK; for CMK: Thrombopoietic activity, concentration at which active.
The test system of assay [2] is C57BL6 mice. Nature of the assay: Thrombopoietin (TPO) in vivo assay (Mouse Platelet Rebound Assay). The settings on record: @ 2 mg/mouse/d; IP injections on days 5 and 6 after anti-platelet serum. On the procedure:
Thrombopoietin (TPO) in vivo assay (Mouse Platelet Rebound Assay)
In vivo Assay for ³⁵S Determination of Platelet Production
C57BL6 mice (obtained from Charles River) were injected intraperitoneally (IP) with 1 ml goat anti-mouse platelet serum (6 amps) on day 1 to produce thrombocytopenia. On days 5 and 6, mice were given two IP injections of the factor or PBS as the control. On day 7, thirty µCi of Na₂³⁵SO₄ in 0.1 ml saline were injected intravenously and the percent ³⁵S incorporation of the injected dose into circulating platelets was measured in blood samples obtained from treated and control mice. Platelet counts and leukocyte counts were made at the same time from blood obtained from the retro-orbital sinus.

Assay [3] has as its system DAMI cells. Put plainly: DAMI assay measuring endomitotic activity (polyploidization) of DAMI cells. The following applies: for DAMI: Thrombopoietic activity, concentration at which active.
Assay [4] is described as follows: Thrombopoeitic activity in various assays (not specified further). The following applies: for thrombopoeitic activity in various assays: no activity at concentrations as high as 200 µM.
For assay [5] the following is noted: after 1-2 weeks treatment; patient had 37,000-58,000/µl before; cited from earlier work.
The mark [6] stands for this setting: read-out: CMK(µM), Thrombopoietic activity, concentration at which active, 'inactive @200' given as >200.
Setting [7] is: read-out: active at concentration in the CMK assay.
Setting [8] is: read-out: active / inactive at concentration in the DAMI assay.
Where [9] appears, read: read-out: DAMI(µM), Thrombopoietic activity, concentration at which active, 'inactive @200' given as >200.
The mark [10] stands for this setting: read-out: active at concentration in the DAMI assay.

On to `NC1(c2ccccc2Cl)CCC=CC1=O` (stereo not shown) [V, 6-amino-6-(2-chlorophenyl)-2-cyclohexen-1-one], for which the minimal effective concentration is 6 µM in assay [1] (setting [6]), 15 µM in assay [1] (setting [7]) and 30 µM in assay [3] (setting [8]). Also, the “In vivo(% ctl.@ mg/mouse/d)” value in assay [2] was 131 @ 2 % ctl. For the same molecule, in assay [3] ('inactive @200' given as >200), the “DAMI” value is reported as 25 µM.

Consider `NC1(c2ccccc2Cl)CCC=CC1=O` (single isomer, unassigned; (+)) [(+)-V, (+)-6-amino-6-(2-chlorophenyl)-2-cyclohexen-1-one], for which, in assay [1], the “active at concentration in the CMK assay” value came to 6 µm. Moreover, the “CMK” value in assay [1] ('inactive @200' given as >200) stood at 6 µM. Also, the “DAMI” value in assay [3] ('inactive @200' given as >200) is listed as 12 µM.

Take `O=C1C=CCCC1` [cyclohexenone, reference compound]: the minimal effective concentration in assay [1] (setting [6]) and in assay [3] (setting [9]) was 200 µM throughout.

On to `NC1(c2ccccc2Cl)CCC=CC1=O` (single isomer, unassigned; (-)) [(-)-V, (-)-6-amino-6-(2-chlorophenyl)-2-cyclohexen-1-one], for which the minimal effective concentration in assay [1] (setting [7]) and in assay [3] (setting [10]) was 6 µM throughout. For the same molecule, the “CMK” value in assay [1] ('inactive @200' given as >200) turned out to be 6 µM. Also, in assay [3] ('inactive @200' given as >200), the “DAMI” value is 12 µM.

As to `NCC(=O)NC1(c2ccccc2Cl)CCC=CC1=O` (stereo not shown) [EXAMPLE IV, 6-(2-aminoacetyl)amino-6-(2-chlorophenyl)-2-cyclohexen-1-one], the minimal effective concentration in assay [1] (setting [7]) and in assay [3] (setting [10]) was 6 µM throughout.

In the case of `O=C(CCCC[C@@H]1SC[C@@H]2NC(=O)N[C@@H]21)NC1(c2ccccc2Cl)CCC=CC1=O` (stereo partly shown) [VII, 6-biotinoylamino-6-(2-chlorophenyl)-2-cyclohexen-1-one], the results for the minimal effective concentration in assay [1] (setting [6]) and in assay [3] (setting [9]) were 12 µM and 25 µM, respectively.

With `NC1(c2ccccc2Cl)CCCCC1=O` (stereo not shown) [IV, 2-(amino)-2-(2-chlorophenyl) cyclohexanone, reference compound], the minimal effective concentration in assay [1] (setting [6]) and in assay [3] (setting [9]) was greater than 200 µM in each case. In addition, the “thrombopoeitic activity in various assays” value in assay [4] was greater than 200 µM.

`CC(=O)NC1(c2ccccc2Cl)CCC=CC1=O` (stereo not shown) [VI, 6-acetylamino-6-(2-chlorophenyl)-2-cyclohexen-1-one]: the results for the minimal effective concentration in assay [1] (setting [6]) and in assay [3] (setting [9]) were 6 µM and 12 µM, respectively. In addition, in assay [4] (N-acylated derivative), the “thrombopoeitic activity compared with 5,6-dehydronorketamine” value is listed as “even more active”.

In the case of `CNC1(c2ccccc2Cl)CCCCC1=O` (stereo not shown) [ketamine (III), 2-(2-chlorophenyl)-2-(methylamino) cyclohexanone, reference compound], the minimal effective concentration in assay [1] (setting [6]) and in assay [3] (setting [9]) was greater than 200 µM throughout. Further, the “thrombopoeitic activity in various assays” value in assay [4] is greater than 200 µM.

With `O=C1C=CC(=O)c2ccccc21` [1,4-naphthoquinone, reference compound], the minimal effective concentration in assay [1] (setting [6]) is less than 6 µM; in assay [3] (setting [9]) it was greater than 200 µM.

For `CSCCC(=O)NC1(c2ccccc2Cl)CCC=CC1=O` (stereo not shown) [EXAMPLE V, 6-(2-chlorophenyl)-6-(3-(methylthio)propanoyl)amino-2-cyclohexen-1-one], in assay [1] (setting [7]), the minimal effective concentration came to 6 µM.

For the molecule `Cc1nnc2n1-c1sc(CCC(=O)N3CCOCC3)cc1C(c1ccccc1Cl)=NC2` [WEB 2086, 4-(2-chlorphenyl)-9-methyl-2-[3-(4-morpholinyl)-3-propanon-1-yl]6H-thieno[3,2,f][1,2,4]triazolo[4,3,a,][1,4] diazepin, reference compound], the minimal effective concentration in assay [1] (setting [6]), in assay [3] (setting [9]) and in assay [3] (setting [8]) was greater than 200 µM each time. Also, the platelet counts in assay [5] is 140,000-190,000 /µl.
